{
  "source": "patent US20260159536A1",
  "about": "“AKR1C3-ACTIVATED DNA ALKYLATING AGENT, AND MEDICAL APPLICATION THEREOF” (ASCENTAWITS PHARMACEUTICALS, LTD., priority 2021, published 2026)",
  "key": {"[1]": {"experiment": "Blood-brain barrier assay of Compound AST-2870 (plasma and brain concentration, PK)", "type": "in vivo, CD-1 mice", "protocol": "Three CD-1 mice were administered 10 mg/kg of test Compound AST-2870 by intraperitoneal injection at each time point. Blood and brain tissues were taken at 5 min, 15 min, 30 min, 1 h, 1.5 h, and 2 h after administration, and the concentration of the test substance in the samples was determined by LC/MS method. The corresponding results of the concentrations of Compound AST-2870 in blood and brain tissue versus time were made into a curve graph, as shown in FIG. 37. The corresponding test results of the ratio of the concentration of the Compound AST-2870 in brain tissue and blood versus time were made into a curve graph, as shown in FIG. 38."}, "[2]": {"test_system": "human lung cancer NCI-H460-Luc2 cells (intracranial)", "experiment": "In vivo pharmacodynamics, NCI-H460-Luc2 intracranial inoculation CDX model", "design": "species or system BALB/c nude mice", "conditions": "20 mg/kg, i.p. QWx3; Day 11", "protocol": "The experiment was divided into groups of test drug Paclitaxel 20 mg/kg group, Compound A 2 mg/kg, 4 mg/kg and 8 mg/kg groups and 10% ethanol+10% polyoxyethylene castor oil+80% glucose injection DSW (pH 7.42) vehicle control group (Vehicle group), with 6 mice per group. […] The positive drug Paclitaxel 20 mg/kg group was administered by intraperitoneal injection and administered once a week for 3 weeks.\nThe pharmacodynamic analysis of each group in the human NCI-H460-luc intracranial inoculation model was performed based on the measured bioluminescence values on day 11 after administration, and the results were shown in Table 14."}, "[3]": {"test_system": "HuPrime model LU2505 human lung cancer", "experiment": "In vivo pharmacodynamics, lung cancer LU2505 PDX model", "design": "species or system BALB/c nude mice", "conditions": "for Tumor volume: 20 mg/kg i.p."}, "[4]": {"test_system": "HuPrime model LU0884 human lung cancer", "experiment": "In vivo pharmacodynamics, lung cancer LU0884 PDX model", "design": "species or system BALB/c nude mice", "conditions": "for Size of tumor volume: Group 2, Paclitaxel 20 mg/kg"}, "[5]": {"conditions": "brain tissues, 10 mg/kg intraperitoneal injection, Mean"}, "[6]": {"conditions": "plasma, 10 mg/kg intraperitoneal injection, Mean"}, "[7]": {"conditions": "20 mg/kg i.p. every four days x4, Day 28"}, "[8]": {"conditions": "Paclitaxel 20 mg/kg, Q4Dx4, i.p., Day 28"}},
  "data": [
    {"molecule": "CC(OP(=O)(N1CC1)N1CC1)c1ccc([N+](=O)[O-])c(Oc2cccc(C(=O)N(C)C)c2)c1", "note": "(centres unmarked) [AST-2870]", "values": [
      {"measurement": "concentration in brain", "setting": "[1]; 10 mg/kg i.p., after 30 minutes", "result": "lower than the lower limit of quantitation"},
      {"measurement": "blood-brain barrier penetration", "setting": "[1]; 10 mg/kg intraperitoneal injection", "result": "could not cross the blood-brain barrier"},
      {"measurement": "AUCInf Ratio (Brain/Plasma)", "setting": "[1]; 10 mg/kg intraperitoneal injection, Mean", "result": 0.0227},
      {"measurement": "AUCInf", "setting": "[1]; [5]", "result": 16.5, "unit": "ng·h/g"},
      {"measurement": "AUClast", "setting": "[1]; [5]", "result": 16.3, "unit": "ng·h/g"},
      {"measurement": "Tmax", "setting": "[1]; [5]", "result": 4.8, "unit": "min"},
      {"measurement": "T½", "setting": "[1]; [5]", "result": 4.48, "unit": "min"},
      {"measurement": "AUCInf", "setting": "[1]; [6]", "result": 725, "unit": "ng·h/mL"},
      {"measurement": "AUClast", "setting": "[1]; [6]", "result": 725, "unit": "ng·h/mL"},
      {"measurement": "Cmax", "setting": "[1]; [6]", "result": 4023, "unit": "ng/mL"},
      {"measurement": "T½", "setting": "[1]; [6]", "result": 9, "unit": "min"}
    ]},
    {"molecule": "CC(=O)O[C@H]1C(=O)[C@@]2(C)[C@H]([C@H](OC(=O)c3ccccc3)[C@]3(O)C[C@H](OC(=O)[C@H](O)[C@@H](NC(=O)c4ccccc4)c4ccccc4)C(C)=C1C3(C)C)[C@]1(OC(C)=O)CO[C@@H]1C[C@@H]2O", "note": "[Paclitaxel, reference compound]", "values": [
      {"measurement": "Bioluminescence Value (Day 11)", "setting": "[2]", "result": "4184.52 ± 1679.77 ×10^5 photon/second"},
      {"measurement": "T/C (%)", "setting": "[2]", "result": 130.82, "unit": "%"},
      {"measurement": "TGI (%)", "setting": "[2]", "result": "−62.45", "unit": "%"},
      {"measurement": "Relative tumor volume (x ± S)", "setting": "[3]; [7]", "result": "2.29 ± 1.37"},
      {"measurement": "T/C (%)", "setting": "[3]; [7]", "result": 21.40, "unit": "%"},
      {"measurement": "TGI (%)", "setting": "[3]; [7]", "result": 78.60, "unit": "%"},
      {"measurement": "Tumor volume (x ± S)", "setting": "[3]; 20 mg/kg i.p. every four days x4, Day 28, in mm³ (unit assumed)", "result": "250.47 ± 157.81"},
      {"measurement": "Tumor volume", "setting": "[3]; Day 0", "result": 103.12, "unit": "mm^3"},
      {"measurement": "Tumor volume", "setting": "[3]; Day 4", "result": 133.63, "unit": "mm^3"},
      {"measurement": "Tumor volume", "setting": "[3]; Day 7", "result": 133.14, "unit": "mm^3"},
      {"measurement": "Tumor volume", "setting": "[3]; Day 11", "result": 132.14, "unit": "mm^3"},
      {"measurement": "Tumor volume", "setting": "[3]; Day 14", "result": 164.42, "unit": "mm^3"},
      {"measurement": "Tumor volume", "setting": "[3]; Day 18", "result": 207.89, "unit": "mm^3"},
      {"measurement": "Tumor volume", "setting": "[3]; Day 21", "result": 238.63, "unit": "mm^3"},
      {"measurement": "Tumor volume", "setting": "[3]; Day 25", "result": 231.63, "unit": "mm^3"},
      {"measurement": "Tumor volume", "setting": "[3]; Day 28", "result": 250.47, "unit": "mm^3"},
      {"measurement": "Size of tumor volume", "setting": "[4]; Day 0", "result": 110.11, "unit": "mm^3"},
      {"measurement": "Size of tumor volume", "setting": "[4]; Day 4", "result": 157.57, "unit": "mm^3"},
      {"measurement": "Size of tumor volume", "setting": "[4]; Day 7", "result": 229.87, "unit": "mm^3"},
      {"measurement": "Size of tumor volume", "setting": "[4]; Day 11", "result": 250.46, "unit": "mm^3"},
      {"measurement": "Size of tumor volume", "setting": "[4]; Day 14", "result": 292.52, "unit": "mm^3"},
      {"measurement": "Size of tumor volume", "setting": "[4]; Day 18", "result": 381.53, "unit": "mm^3"},
      {"measurement": "Size of tumor volume", "setting": "[4]; Day 21", "result": 402.62, "unit": "mm^3"},
      {"measurement": "Size of tumor volume", "setting": "[4]; Day 25", "result": 492.50, "unit": "mm^3"},
      {"measurement": "Size of tumor volume", "setting": "[4]; Day 28", "result": 528.88, "unit": "mm^3"},
      {"measurement": "T/C (%)", "setting": "[4]; [8]", "result": 78.79, "unit": "%"},
      {"measurement": "TGI (%)", "setting": "[4]; [8]", "result": 21.21, "unit": "%"},
      {"measurement": "Relative tumor volume (x ± S)", "setting": "[4]; Paclitaxel 20 mg/kg, Q4Dx4, i.p., Day 28, mean ± standard error", "result": "4.72 ± 1.26"},
      {"measurement": "Tumor volume (x ± S)", "setting": "[4]; Paclitaxel 20 mg/kg, Q4Dx4, i.p., Day 28, mean ± standard error, in mm³ (unit assumed)", "result": "528.88 ± 147.69"},
      {"measurement": "tumor inhibitory effect", "setting": "[4]; Paclitaxel 20 mg/kg, Compound A 2.5, 5, 10 mg/kg", "result": "weak tumor inhibitory effect"}
    ]}
  ]
}
